# Source: patent US20050222027A1, “Modulation of complement to treat pain” (Euro-Celtique S.A., priority 2003, published 2005)
# Entries after “also recorded” stand apart in the source; their conditions may differ.
# Tests used:
# C3 = assay: Hemolysis assay measuring C3 activity in serum of rats given CVF; type: in vivo, rat
# Excerpt: A variety of methods well-known in the art can be used to determine at least one activity of a complement component. As described in the Examples Section below, the hemolysis assay can be used to measure the activity of C3 in the serum from blood samples. In the hemolysis assay, erythrocytes are sensitized by coating these erythrocytes with antibodies against red blood cells. Next, the sensitized erythrocytes, C3-depleted serum, and a blood sample to be tested for C3 activity are combined and incubated. During incubation, the complement pathway proceeds on the surface of the erythorcytes using complement components from the C3-depleted serum and C3 from the blood sample. This pathway can result in the formation of a sufficient number of MAC pores to induce erythorcyte lysis and hemoglobin release. The optical density at 540 run is then measured to determine the quantity of free hemoglobin in solution as a result of erythrocyte lysis. Since erythrocyte lysis is a result of complement activation and the presence of C3, the optical density at 540 nm is a measure of the activity of C3 in the blood sample.
# To determine the effect of CVF on complement C3 activity, naïve animals were injected with CVF on days 0, 3, and 6. C3 activity was measured using the hemolysis assay before and after CVF injections as described below.
# The timeline for the general method of surgery followed by CVF injection is outlined in FIG. 8. Spinal nerve ligation (SNL) was performed on Sprague-Dawley rats as described above in Example 1. On day 0, SNL surgery was performed on 20 rats and sham surgery was performed on 20 rats. At days 23 and 26 post surgery, 10 SNL and 10 sham animals (designated herein as SNL-CVF and Sham-CVF, respectively) were injected (ip) with CVF (350 units/kg). In addition, as controls, 10 SNL and 10 sham animals (designated herein as SNL-saline and Sham-saline, respectively) were given saline injections (ip). Five animals from each group were terminated on day 29. The remaining five animals were terminated on day 39. Pain behavior was measured using the paw pressure test as described in Example 1 above. C3 activity was measured by the hemolysis assay before and after animals received CVF as described below.
# The sensitization of sheep erythrocytes and the hemolysis assay to measure C3 activity were performed according to the Quidel Technical Bulletin entitled Measurement of C3 function in non-primate sera by hemolytic assay (Quidel Corporation, Santa Clara, Calif.). References within this protocol are the following: DeSautel and Brode, Laryngoscope 1999, 109:1674-8; Kirshfink, The Complement System 1998, Rother and Till eds, Springer Verlag Berlin Heidelberg, 522-547; Mollnes, Complement and Complement Receptors 1997, Weir ed, 78.1-78.6; Porcel et al., J. Immunol Method. […]
# [1] = tested on: spinal nerve ligation (SNL) model of neuropathic pain; assay: Paw pressure test (paw withdrawal threshold) in the SNL model of neuropathic pain; type: in vivo, rat
# Excerpt: Rats having the L5-L6 spinal nerves ligated (SNL) according to the method of Kim and Chung, Pain 1992; 50:355-63 were used in this experiment. Briefly, nerve injury was induced by tight ligation of the left L5 and L6 spinal nerves, producing symptoms of neuropathic pain as described below. The advantage of this model is that it allows the investigation of dorsal root ganglia that are injured (L5 and L6) versus dorsal root ganglia that are not injured (L4). Thus, it is possible to see changes in gene expression specifically in response to nerve injury.
# Surgery was performed under isoflurane/O2 inhalation anesthesia. Following induction of anesthesia, a 3 cm incision was made just lateral to the spinal vertebrae. The left paraspinal muscles were separated from the spinous process at the L4-S2 levels. The L6 transverse process was carefully removed with a pair of small rongeurs to visually identify the L4-L6 spinal nerves. The left L5 and L6 spinal nerves were isolated and tightly ligated with 7-0 silk suture. A complete hemostasis was confirmed, and the wound was sutured using […] sutures, such as 4-0 Vicryl.
# Mechanical sensitivity was assessed using the paw pressure test. This test measures mechanical hyperalgesia. Hind paw withdrawal thresholds (“PWT”) (measured in grams) in response to a noxious mechanical stimulus were determined using an analgesymeter (Model 7200, commercially available from Ugo Basile of Italy), as described in Stein, Biochemistry & Behavior 1988; 31: 451-455. […] PWT was determined once for each rat at each time point, and only the injured ipsilateral paw (i.e., the hind paw on the same side of the animal as the ligation in SNL animals, or the side of the animal where the nerve was exposed but not injured in sham-operated animals) was used in the test. […]
# The timeline for the general method of surgery followed by CVF injection is outlined in FIG. 8. […] Pain behavior was measured using the paw pressure test as described in Example 1 above. C3 activity was measured by the hemolysis assay before and after animals received CVF as described below.
substance,measurement,setting,value
CVF,C3 complement activity levels on day 39,"C3; CVF 350 units/kg ip on days 23 and 26 post surgery, day 39, FIG. 10C",returned to pre-surgery and day 23 levels
same,C3 activity levels relative to pre-surgery and day 23,"C3; CVF treated animals (350 units/kg ip on days 23 and 26 post surgery), days 28 and 29, FIG. 10B",below 20%
same,C3 activity (hemolysis assay) after CVF treatment,"C3; SNL and sham surgery rats injected with CVF or saline, FIGS. 10B and 10C",C3 activity decreases after CVF treatment in both SNL and sham surgery animals
same,"C3 activity (hemolysis assay, optical density at 540 nm) after CVF treatment","C3; naïve rats, CVF given on days 0, 3 and 6, measured at 0, 3, 6, 7, 8 and 12 days, FIG. 10A",return to pre-dosing levels by day 8; also recorded: C3 activity decreases
same,Pain tolerance (withdrawal threshold to a mechanical stimulus) versus SNL animals injected with saline,[1]; SNL rats treated with CVF compared to SNL saline control,chronic pain is alleviated; also recorded: higher pain tolerance
same,Pain behavior (paw withdrawal threshold) of SNL-CVF animals by day 29,"[1]; SNL rats, CVF 350 units/kg ip on days 23 and 26 post surgery, day 29, FIG. 9",not significantly different than Sham-saline or Sham-CVF animals
same,Pain behavior (paw withdrawal threshold) of SNL-CVF animals by day 31,"[1]; SNL rats, CVF 350 units/kg ip on days 23 and 26 post surgery, day 31, FIG. 9",returned to day 23 levels
